Measurements published in paper PMC6150173, “Tryptophan-Containing Cyclic Decapeptides with Activity against Plant Pathogenic Bacteria” (Molecules : A Journal of Synthetic Chemistry and Natural …, 2017).
Peptide text beside a SMILES is read from it.

Tests used:
[1] = tested on: Pseudomonas syringae pv. syringae, Xanthomonas axonopodis pv. vesicatoria, and Erwinia amylovora; details: cited from earlier work
Description: Combinatorial chemistry constitutes a powerful tool to obtain peptides with improved biological activity against plant pathogens. In particular, we have employed this methodology to design and synthesize a library of cyclic decapeptides with general structure c(X5-Phe-X3-Gln) where X is Lys or Leu. Analysis of internal structural features together with a design of experiments (DOE) allowed establishing the sequence pattern for an optimal biological activity, i.e., c(X^1X^2X^3X^4LysPheLysLysLeuGln) where X^2 ≠ X^3 and X^4 = Lys. […] Cyclic peptides are preferred candidates due to their high conformational rigidity and proteolytic stability. In a previous work, a library of 66 Phe-containing cyclic decapeptides was synthesized from which sequences with high activity against E. amylovora, P. syringae pv. syringae, and X. axonopodis pv. vesicatoria were identified, highlighting c(LysLysLeuLysLysPheLysLysLeuGln) ... || The results obtained support the notion that subtle changes in a peptide sequence may lead to a significant modification of its biological activity. Thus, for example, the Phe→Trp substitution in the lead peptides c(LysLysLeuLysLysPheLysLysLeuGln) (BPC194) and c(LysLeuLysLysLysPheLysLysLeuGln) (BPC198) caused a reduction of the activity. […]

[2] = tested on: erythrocyte suspensions of human blood; experiment: Hemolytic activity, hemoglobin release; assay type: cell-based; details: human blood erythrocytes 5% v/v, absorbance 540 nm, percentage compared to melittin, three replicates
Method: The hemolytic activity of the compounds was evaluated at 50 and 125 μM by determining hemoglobin release from erythrocyte suspensions of human blood (5% v/v) (Oxoid) using absorbance at 540 nm, as previously described. Three replicates for each peptide concentration were used.

[3] = tested on: Xanthomonas axonopodis pv. vesicatoria 2133-2; assay type: cell-based; details: Table S1, MIC range
Summary of the method: (§1)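 MIC determined by in vitro growth inhibition across 0.8, 1.6, 3.1, 6.2, 12.5, 25 and 50 μM peptide. Strains tested: E. amylovora PMV6076, P. syringae pv. syringae EPS94 and X. axonopodis pv. vesicatoria 2133-2.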

[4] = tested on: Erwinia amylovora PMV6076; experiment: Antibacterial activity (MIC), in vitro growth inhibition; assay type: cell-based; details: Table S1, MIC range
Summary of the method: as §1

[5] = tested on: Pseudomonas syringae pv. syringae EPS94; experiment: as above; assay type: cell-based; details: Table S1, MIC range
Summary of the method: as §1

Molecule	antibacterial activity in words, Phe peptides [1]	Hemolysis (%) at 50 µM ([2]; peptide 50 μM (table prints 50 µM))	Hemolysis (%) at 125 µM ([2]; peptide 125 μM (table prints 125 µM))	MIC Xav [3]	MIC Ea [4]	MIC Pss [5]
cyclo(LKKKLFKKLQ) [BPC086]	poorly active	–	–	–	–	–
cyclo(LKKKKFLLKQ) [BPC108]	poorly active	–	–	–	–	–
CC(C)C[C@@H]1NC(=O)[C@H](CCCCN)NC(=O)[C@H](CC(C)C)NC(=O)[C@H](Cc2c[nH]c3ccccc23)NC(=O)[C@H](CC(C)C)NC(=O)[C@H](CCCCN)NC(=O)[C@H](CCCCN)NC(=O)[C@H](CCCCN)NC(=O)[C@H](CCCCN)NC(=O)[C@H](CCC(N)=O)NC1=O [BPC070W, c(KKKKLWLKLQ)] (cyclo(KKKKLWLKLQ))	–	6%	9%	1.6 to 3.1 µM	12.5 to 25 µM	6.2 to 12.5 µM
